Experimental data as given in patent US8242145B2, “Cyclic diaryl ether compounds as antagonists of prostaglandin D2 receptors” (Panmira Pharmaceuticals, LLC, priority 2008, dated 2012).
pIC50: −log10 of the molar value.

Key:
human DP2 receptor = target: T1, human DP2 receptor (Homo sapiens, UniProt Q9Y5Y4); test: DP2/CRTH2 radioligand binding assay using [3H]PGD2; settings: hDP2 (CRTH2) binding assay
T1 construct: expressed in transfected cells
T1 sequence (Q9Y5Y4 1-395): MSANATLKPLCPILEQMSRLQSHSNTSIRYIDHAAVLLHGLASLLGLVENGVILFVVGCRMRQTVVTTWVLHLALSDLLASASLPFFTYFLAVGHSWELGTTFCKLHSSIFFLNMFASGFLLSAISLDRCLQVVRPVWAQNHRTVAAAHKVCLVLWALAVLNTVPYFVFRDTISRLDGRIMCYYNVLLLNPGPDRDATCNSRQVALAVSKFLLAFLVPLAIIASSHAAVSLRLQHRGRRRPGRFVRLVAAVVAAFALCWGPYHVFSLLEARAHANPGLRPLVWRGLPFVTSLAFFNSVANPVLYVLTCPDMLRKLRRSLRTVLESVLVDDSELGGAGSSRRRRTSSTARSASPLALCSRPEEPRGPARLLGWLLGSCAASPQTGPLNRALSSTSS
Summary of the method: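 HEK293 membranes with stable recombinant human DP2, incubated with 1 nM [3H]PGD2 and compound 60 min at room temperature in pH 7.4 HEPES/MnCl2/EDTA buffer, with or without 0.2% human serum albumin.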

[1] = target: T2, recombinant human CRTH2 receptor (Homo sapiens, UniProt Q9Y5Y4); test: GTPγS binding assay; format: biochemical; settings: +HSA; read-out: hDP2 GTPγS μM (+HSA)
T2 construct: expressed in transfected cells
T2 sequence (Q9Y5Y4 1-395): T1 sequence (Q9Y5Y4 1-395)
Procedure: The ability of a compound to inhibit binding of GTP to DP2 is assessed via a membrane GTPγS assay. CHO cells stably expressing the recombinant human CRTH2 receptor are resuspended in 10 mM Hepes, 7.4 containing 1 mM DTT, lysed and centrifuged at 75,000×g to pellet the membranes. The membranes are resuspended in 10 mM Hepes, 7.4 containing 1 mM DTT and 10% glycerol. Membranes (˜12.5 μg per well) are incubated in 96-well plates with 0.05 nM [^35S]-GTPγS, 80 nM PGD2, 5 μM GDP, and test compound in Assay Buffer (50 mM Hepes, pH 7.4, 100 mM NaCl, 5 mM MgCl2 and 0.2% human serum albumin) for 60 minutes at 30° C. The reactions are terminated by rapid filtration through Whatman GF/B glass fibre filter plates. The filter plates are washed 3 times with 1 ml cold Assay Buffer and dried. Scintillant is then added to the plates and the radioactivity retained on the filters is determined on a Packard TopCount (Perkin Elmer). Specific binding is determined as total radioactive binding minus non-specific binding in the absence of the ligand (80 nM PGD2). IC50s were determined using Graphpad prism analysis of drug titration curves.

human DP1 receptor = target: T3, human DP1 receptor (Homo sapiens, UniProt Q13258); test: DP1 radioligand binding assay using [3H]BWA868C; settings: hDP1 binding
T3 construct: tissue Biological Specialty Corporation; host or cells: human platelets, membranes
T3 sequence (Q13258 1-359): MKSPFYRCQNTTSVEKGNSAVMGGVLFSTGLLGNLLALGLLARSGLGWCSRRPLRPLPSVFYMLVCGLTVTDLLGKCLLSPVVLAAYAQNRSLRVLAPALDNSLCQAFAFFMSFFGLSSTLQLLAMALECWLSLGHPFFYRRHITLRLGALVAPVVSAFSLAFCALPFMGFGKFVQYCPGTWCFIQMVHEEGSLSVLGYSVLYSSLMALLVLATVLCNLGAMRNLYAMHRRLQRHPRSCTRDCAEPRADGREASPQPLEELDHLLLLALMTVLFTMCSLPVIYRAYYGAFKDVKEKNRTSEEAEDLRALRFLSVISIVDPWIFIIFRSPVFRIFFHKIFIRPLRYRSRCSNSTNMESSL
Summary of the method: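 Human platelet membranes (20 μg protein/well) incubated 60 min at room temperature with 2 nM [3H]BWA868C in 50 mM Hepes, 10 mM MnCl2, 1 mM EDTA, ±0.2% human serum albumin, pH 7.4. Bound label measured after filtration; nonspecific binding defined with 10 μM BW A868C. IC50 from titration curves.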

SMILES | pIC50 (human DP2 receptor) | IC50 [1] | pIC50 (human DP1 receptor)
COc1ccc(CC(=O)O)cc1Oc1ccc(Cl)cc1CN1C(=O)O[C@H](c2ccccc2)[C@@H]1C [Compound 1-31, {3-[4-Chloro-2-((4S,5R)-4-methyl-2-oxo-5-phenyl-oxazolidin-3-ylmethyl)-phenoxy]-4-methoxy-phenyl}-acetic acid] | > 6.52 | < 0.3 µM | < 6.00
COc1ccc(CC(=O)O)cc1Oc1ccc(C(F)(F)F)cc1CN1C(=O)O[C@H](c2ccccc2)[C@@H]1C [Compound 1-32, {4-Methoxy-3-[2-((4S,5R)-4-methyl-2-oxo-5-phenyl-oxazolidin-3-ylmethyl)-4-trifluoromethyl-phenoxy]-phenyl}-acetic acid] | > 6.52 | < 0.3 µM | < 6.00
C[C@H]1[C@@H](c2ccccc2)OC(=O)N1Cc1cc(C(F)(F)F)ccc1Oc1cc(CC(=O)O)ccc1OCc1ccccc1 [Compound 1-33, {4-Benzyloxy-3-[2-((4S,5R)-4-methyl-2-oxo-5-phenyl-oxazolidin-3-ylmethyl)-4-trifluoromethyl-phenoxy]-phenyl}-acetic acid] | > 6.52 | < 0.3 µM | < 6.00
COc1ccc(CC(=O)O)cc1Oc1ccc(S(C)(=O)=O)cc1CN1C(=O)O[C@H](c2ccccc2)[C@@H]1C [Compound 1-34, {3-[4-Methanesulfonyl-2-((4S,5R)-4-methyl-2-oxo-5-phenyl-oxazolidin-3-ylmethyl)-phenoxy]-4-methoxy-phenyl}-acetic acid] | 6.00 to 6.52 | > 1 µM | < 6.00
COc1ccc(CC(=O)O)cc1Oc1ccc(-c2ccccc2)cc1CN1C(=O)O[C@H](c2ccccc2)[C@@H]1C [Compound 1-35, {4-Methoxy-3-[3-((4S,5R)-4-methyl-2-oxo-5-phenyl-oxazolidin-3-ylmethyl)-biphenyl-4-yloxy]-phenyl}-acetic acid] | > 6.52 | > 1 µM | < 6.00
COc1ccc(CC(=O)O)cc1Oc1ccc(-c2ccc(F)cc2)cc1CN1C(=O)O[C@H](c2ccccc2)[C@@H]1C [Compound 1-36, {3-[4′-Fluoro-3-((4S,5R)-4-methyl-2-oxo-5-phenyl-oxazolidin-3-ylmethyl)-biphenyl-4-yloxy]-4-methoxy-phenyl}-acetic acid] | > 6.52 | > 1 µM | < 6.00
COc1ccc(CC(=O)O)cc1Oc1ccc(-c2ccccc2OC)cc1CN1C(=O)O[C@H](c2ccccc2)[C@@H]1C [Compound 1-37, {4-Methoxy-3-[2′-methoxy-3-((4S,5R)-4-methyl-2-oxo-5-phenyl-oxazolidin-3-ylmethyl)-biphenyl-4-yloxy]-phenyl}-acetic acid] | > 6.52 | < 0.3 µM | < 6.00
COc1cccc(-c2ccc(Oc3cc(CC(=O)O)ccc3OC)c(CN3C(=O)O[C@H](c4ccccc4)[C@@H]3C)c2)c1 [Compound 1-38, {4-Methoxy-3-[3′-methoxy-3-((4S,5R)-4-methyl-2-oxo-5-phenyl-oxazolidin-3-ylmethyl)-biphenyl-4-yloxy]-phenyl}-acetic acid] | > 6.52 | 0.3 to 1 µM | < 6.00
COc1ccc(-c2ccc(Oc3cc(CC(=O)O)ccc3OC)c(CN3C(=O)O[C@H](c4ccccc4)[C@@H]3C)c2)cc1 [Compound 1-39, {4-Methoxy-3-[4′-methoxy-3-((4S,5R)-4-methyl-2-oxo-5-phenyl-oxazolidin-3-ylmethyl)-biphenyl-4-yloxy]-phenyl}-acetic acid] | > 6.52 | > 1 µM | < 6.00
COc1ccc(CC(=O)O)cc1Oc1ccc(-c2cccnc2)cc1CN1C(=O)O[C@H](c2ccccc2)[C@@H]1C [Compound 1-40, {4-Methoxy-3-[2-((4S,5R)-4-methyl-2-oxo-5-phenyl-oxazolidin-3-ylmethyl)-4-pyridin-3-yl-phenoxy]-phenyl}-acetic acid] | > 6.52 | < 0.3 µM | < 6.00
COc1ccc(CC(=O)O)cc1Oc1ccc(-c2ccncc2)cc1CN1C(=O)O[C@H](c2ccccc2)[C@@H]1C [Compound 1-41, {4-Methoxy-3-[2-((4S,5R)-4-methyl-2-oxo-5-phenyl-oxazolidin-3-ylmethyl)-4-pyridin-4-yl-phenoxy]-phenyl}-acetic acid] | > 6.52 | 0.3 to 1 µM | < 6.00
COc1ccc(CC(=O)O)cc1Oc1ccc(-c2cn[nH]c2)cc1CN1C(=O)O[C@H](c2ccccc2)[C@@H]1C [Compound 1-42, {4-Methoxy-3-[2-((4S,5R)-4-methyl-2-oxo-5-phenyl-oxazolidin-3-ylmethyl)-4-(1H-pyrazol-4-yl)-phenoxy]-phenyl}-acetic acid] | > 6.52 | < 0.3 µM | < 6.00
COc1ccc(CC(=O)O)cc1Oc1ccc(-c2cnn(C)c2)cc1CN1C(=O)O[C@H](c2ccccc2)[C@@H]1C [Compound 1-43, {4-Methoxy-3-[2-((4S,5R)-4-methyl-2-oxo-5-phenyl-oxazolidin-3-ylmethyl)-4-(1-methyl-1H-pyrazol-4-yl)-phenoxy]-phenyl}-acetic acid] | > 6.52 | 0.3 to 1 µM | < 6.00
COc1ccc(C(C)C(=O)O)cc1Oc1ccc(C(F)(F)F)cc1CN1C(=O)O[C@H](c2ccccc2)[C@@H]1C (stereo partly drawn) [Compound 1-44, 2-{4-Methoxy-3-[2-((4S,5R)-4-methyl-2-oxo-5-phenyl-oxazolidin-3-ylmethyl)-4-trifluoromethyl-phenoxy]-phenyl}-propionic acid] | > 6.52 | 0.3 to 1 µM | < 6.00
O=C(O)Cc1cccc(Oc2ccc(Br)cc2CN2C(=O)OC[C@@H]2c2ccccc2)c1 [Compound 1-45, {3-[4-Bromo-2-((S)-2-oxo-4-phenyl-oxazolidin-3-ylmethyl)-phenoxy]-phenyl}-acetic acid] | > 6.52 | < 0.3 µM | < 6.00
O=C(O)Cc1cccc(Oc2ccc(Br)cc2CN2C(=O)OC[C@@H]2Cc2ccccc2)c1 [Compound 1-46, {3-[2-((S)-4-Benzyl-2-oxo-oxazolidin-3-ylmethyl)-4-bromo-phenoxy]-phenyl}-acetic acid] | > 6.52 | < 0.3 µM | < 6.00
O=C(O)Cc1cccc(Oc2ccc(Br)cc2CN2C[C@@H](c3ccccc3)OC2=O)c1 [Compound 1-47, {3-[4-Bromo-2-((R)-2-oxo-5-phenyl-oxazolidin-3-ylmethyl)-phenoxy]-phenyl}-acetic acid] | > 6.52 | < 0.3 µM | 6.00 to 6.52
O=C(O)Cc1cccc(Oc2ccc(Br)cc2CN2C[C@H](c3ccccc3)OC2=O)c1 [Compound 1-48, {3-[4-Bromo-2-((S)-2-oxo-5-phenyl-oxazolidin-3-ylmethyl)-phenoxy]-phenyl}-acetic acid] | > 6.52 | > 1 µM | 6.00 to 6.52
C[C@@H]1[C@H](c2ccccc2)OC(=O)N1Cc1cc(Br)ccc1Oc1cccc(CC(=O)O)c1 [Compound 1-49, {3-[4-Bromo-2-((4R,5S)-4-methyl-2-oxo-5-phenyl-oxazolidin-3-ylmethyl)-phenoxy]-phenyl}-acetic acid] | > 6.52 | < 0.3 µM | > 6.52
C[C@@H]1[C@H](c2ccc(Cl)cc2)OC(=O)N1Cc1cc(Br)ccc1Oc1cccc(CC(=O)O)c1 [Compound 1-50, (3-{4-Bromo-2-[(4R,5S)-5-(4-chloro-phenyl)-4-methyl-2-oxo-oxazolidin-3-ylmethyl]-phenoxy}-phenyl)-acetic acid] | > 6.52 | 0.3 to 1 µM | 6.00 to 6.52
C[C@@H]1[C@H](c2cc(F)cc(F)c2)OC(=O)N1Cc1cc(Br)ccc1Oc1cccc(CC(=O)O)c1 [Compound 1-51] | > 6.52 | < 0.3 µM | 6.00 to 6.52
